Data as given in patent US9376436B2, “2-(pyridin-2yl)-1, 7-diaza-spiro [4.4] nonane-6-one compound as voltage-gated sodium channels modulators” (CONVERGENCE PHARMACEUTICALS LIMITED, priority 2011, dated 2016).
Counter-ions that a name gives are not always drawn. Like-named read-outs stand apart in the source and are kept apart here.

Biological target: T1, hNaV1.7 (Homo sapiens, UniProt Q15858)
T1 construct: expressed in transfected cells; host or cells: HEK293
Test: QPatch NaV1.7 assay (whole-cell patch clamp, QPatch16x)
Type: cell-based
Settings: HEK293-hNaV1.7 cells
Summary of the method: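 Automated whole-cell recordings in hNaV1.7-expressing HEK293 cells, holding at either −90 mV (mostly closed channels) or the half-inactivation voltage. Compounds applied cumulatively at four concentrations for 120 s each; peak current on 20 ms depolarisation to 0 mV fitted by Hill equation to yield pIC50.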

[1] = holding voltage V1/2 SSI (half of channels inactivated), read-out: QP Nav1.7 SSI vhalf pIC50 (converted)
[2] = holding voltage −90 mV (most channels closed), read-out: QP Nav1.7 −90 mV pIC50 (converted)

T1 sequence (Q15858 whole entry): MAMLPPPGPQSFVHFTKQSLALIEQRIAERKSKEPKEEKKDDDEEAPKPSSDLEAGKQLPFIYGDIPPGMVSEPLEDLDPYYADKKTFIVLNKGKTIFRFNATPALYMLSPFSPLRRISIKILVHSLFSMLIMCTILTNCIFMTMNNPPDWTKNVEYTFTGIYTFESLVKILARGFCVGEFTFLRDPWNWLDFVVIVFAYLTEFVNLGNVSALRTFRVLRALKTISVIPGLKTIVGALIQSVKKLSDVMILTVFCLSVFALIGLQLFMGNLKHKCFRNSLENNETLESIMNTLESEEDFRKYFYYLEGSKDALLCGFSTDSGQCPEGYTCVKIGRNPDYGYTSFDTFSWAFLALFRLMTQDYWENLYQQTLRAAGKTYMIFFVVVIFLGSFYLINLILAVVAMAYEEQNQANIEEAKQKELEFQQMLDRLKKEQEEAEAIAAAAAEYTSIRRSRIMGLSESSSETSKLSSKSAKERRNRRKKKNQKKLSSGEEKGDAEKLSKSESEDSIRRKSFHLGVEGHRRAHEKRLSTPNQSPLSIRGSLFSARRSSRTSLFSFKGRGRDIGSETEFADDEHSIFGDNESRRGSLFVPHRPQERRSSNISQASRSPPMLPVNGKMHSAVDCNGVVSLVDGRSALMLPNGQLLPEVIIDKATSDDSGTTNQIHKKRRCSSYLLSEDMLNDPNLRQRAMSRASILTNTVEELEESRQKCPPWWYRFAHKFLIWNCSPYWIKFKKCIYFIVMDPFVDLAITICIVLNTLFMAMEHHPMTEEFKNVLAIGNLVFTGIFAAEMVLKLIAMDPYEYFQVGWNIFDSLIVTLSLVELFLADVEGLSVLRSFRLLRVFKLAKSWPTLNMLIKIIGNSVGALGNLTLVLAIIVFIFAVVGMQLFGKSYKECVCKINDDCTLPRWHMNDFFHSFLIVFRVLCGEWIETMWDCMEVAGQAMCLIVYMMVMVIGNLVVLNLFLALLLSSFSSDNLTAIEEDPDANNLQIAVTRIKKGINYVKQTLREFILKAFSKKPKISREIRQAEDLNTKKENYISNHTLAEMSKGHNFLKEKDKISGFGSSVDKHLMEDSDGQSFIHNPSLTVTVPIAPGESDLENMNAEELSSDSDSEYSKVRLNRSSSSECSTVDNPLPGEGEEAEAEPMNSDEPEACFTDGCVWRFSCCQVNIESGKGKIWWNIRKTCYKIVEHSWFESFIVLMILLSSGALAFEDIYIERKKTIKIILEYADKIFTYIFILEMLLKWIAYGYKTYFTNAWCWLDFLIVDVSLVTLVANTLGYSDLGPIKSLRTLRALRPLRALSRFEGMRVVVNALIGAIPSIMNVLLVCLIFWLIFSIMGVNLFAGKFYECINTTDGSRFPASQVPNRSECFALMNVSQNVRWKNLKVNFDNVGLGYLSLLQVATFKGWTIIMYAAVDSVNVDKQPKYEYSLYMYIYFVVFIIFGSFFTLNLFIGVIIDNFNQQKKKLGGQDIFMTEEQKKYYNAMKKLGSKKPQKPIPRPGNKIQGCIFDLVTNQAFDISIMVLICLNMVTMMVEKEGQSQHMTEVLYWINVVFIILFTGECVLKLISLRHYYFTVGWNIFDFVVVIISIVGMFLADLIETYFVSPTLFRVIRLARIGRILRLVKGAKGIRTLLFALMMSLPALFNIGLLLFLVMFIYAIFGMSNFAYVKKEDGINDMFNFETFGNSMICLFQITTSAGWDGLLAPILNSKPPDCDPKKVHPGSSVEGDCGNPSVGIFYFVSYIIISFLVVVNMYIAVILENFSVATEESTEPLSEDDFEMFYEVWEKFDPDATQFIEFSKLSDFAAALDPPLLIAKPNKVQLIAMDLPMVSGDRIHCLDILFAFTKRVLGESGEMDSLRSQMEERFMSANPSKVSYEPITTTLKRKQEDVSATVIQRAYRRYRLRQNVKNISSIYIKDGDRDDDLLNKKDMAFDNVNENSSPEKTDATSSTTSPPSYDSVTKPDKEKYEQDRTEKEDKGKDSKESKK

Compound	IC50 [1] [µM]	IC50 [2] [µM]
CCOc1cc(-c2cc(C)nc([C@@H]3CC[C@@]4(CCN(C)C4=O)N3)c2)ccc1F [Example 126, (2S,5S)-2-[4-(3-Ethoxy-4-fluoro-phenyl)-6-methyl-2-pyridyl]-7-methyl-1,7-diazaspiro[4.4]nonan-6-one hydrochloride]	20	316
COCc1cccc(-c2ccnc([C@H]3CC[C@@]4(CCN(C)C4=O)N3)c2)c1 [Example 168, (2R,5S)-2-[4-[3-(methoxymethyl)phenyl]-2-pyridyl]-7-methyl-1,7-diazaspiro[4.4]nonan-6-one hydrochloride]	158	316
CN1CC[C@@]2(CC(F)C(c3cc(-c4ccc(C(F)(F)F)cc4)ccn3)N2)C1=O (single isomer, unassigned) [Example 239]	15.8	251
CCOc1ccc(F)c(-c2cc(C(C)C)nc([C@H]3CC[C@@]4(CCN(C)C4=O)N3)c2)c1 [Example 237, (2R,5S)-2-[4-(5-Ethoxy-2-fluoro-phenyl)-6-isopropyl-2-pyridyl]-7-methyl-1,7-diazaspiro[4.4]nonan-6-one hydrochloride]	0.316	2.51
CN1CC[C@@]2(CC[C@H](c3cc(-c4ccc5c(c4)OC(F)(F)O5)ccn3)N2)C1=O [Example 172, (2R,5S)-2-[4-(2,2-Difluoro-1,3-benzodioxol-5-yl)-2-pyridyl]-7-methyl-1,7-diazaspiro[4.4]nonan-6-one hydrochloride]	31.6	316
CN1CC[C@@]2(CC[C@H](c3cc(-c4ccc(C(F)(F)F)cc4)c(F)cn3)N2)C1=O [Example 58, (2R,5S)-2-[5-Fluoro-4-[4-(trifluoromethyl)phenyl]-2-pyridyl]-7-methyl-1,7-diazaspiro[4.4]nonan-6-one hydrochloride]	1.26	63.1
CCCOc1ccc(F)c(-c2ccnc([C@H]3CC[C@@]4(CCN(C)C4=O)N3)c2)c1 [Example 177, (2R,5S)-2-[4-(2-Fluoro-5-propoxy-phenyl)-2-pyridyl]-7-methyl-1,7-diazaspiro[4.4]nonan-6-one hydrochloride]	0.398	12.6
O=C1NCC[C@@]12CC[C@@H](c1cc(-c3ccc(C(F)(F)F)cc3)ccn1)N2 [Example 36, (2S,5S)-2-[4-[4-(Trifluoromethyl)phenyl]-2-pyridyl]-1,7-diazaspiro[4.4]nonan-6-one hydrochloride]	0.794	20
CCOc1ccc(F)c(-c2cc([C@@H]3CC[C@@]4(CCN(C)C4=O)N3)ncc2F)c1 [Example 224, (2S,5S)-2-[4-(5-Ethoxy-2-fluoro-phenyl)-5-fluoro-2-pyridyl]-7-methyl-1,7-diazaspiro[4.4]nonan-6-one hydrochloride]	15.8	100
CC(Oc1ccc(F)c(-c2ccnc([C@H]3CC[C@@]4(CCN(C)C4=O)N3)c2)c1)C1CC1 (stereo partly drawn) [Example 255, (2R,5S)-2-[4-[5-(1-(Cyclopropyl)ethoxy)-2-fluoro-phenyl]-2-pyridyl]-7-methyl-1,7-diazaspiro[4.4]nonan-6-one hydrochloride]	10	100
Cc1cc(-c2cc(OC(F)(F)F)ccc2F)cc([C@H]2CC[C@@]3(CCN(C)C3=O)N2)n1 [Example 200, (2R,5S)-2-[4-[2-Fluoro-5-(trifluoromethoxy)phenyl]-6-methyl-2-pyridyl]-7-methyl-1,7-diazaspiro[4.4]nonan-6-one hydrochloride]	2	31.6
O=C1NCCC[C@@]12CC[C@H](c1cc(-c3ccc(F)cc3)ccn1)N2 [Example 111, (2R,5R)-2-[4-(4-Fluoro-phenyl)-pyridin-2-yl]-1,7-diaza-spiro[4.5]decan-6-one hydrochloride]	63.1	200
Cc1cc(-c2ccc(C(F)(F)F)cc2)cc([C@H]2CC[C@]3(CCNC3=O)N2)n1 [Example 96, (2R,5R)-2-[6-Methyl-4-[4-(trifluoromethyl)phenyl]-2-pyridyl]-1,7-diazaspiro[4.4]nonan-6-one hydrochloride]	3.16	20
CN1CC[C@@]2(CC(F)(F)C(c3cc(-c4ccc(C(F)(F)F)cc4)ccn3)N2)C1=O (mixture of isomers) [Example 240, (5R)-3,3-Difluoro-7-methyl-2-[4-[4-(trifluoromethyl)phenyl]-2-pyridyl]-1,7-diazaspiro[4.4]nonan-6-one hydrochloride]	1.58	31.6
CCOc1ccc(F)c(-c2ccnc([C@H]3CC[C@]4(CCN(C)C4=O)N3)c2)c1 [Example 146, (2R,5R)-2-[4-(5-Ethoxy-2-fluoro-phenyl)-2-pyridyl]-7-methyl-1,7-diazaspiro[4.4]nonan-6-one hydrochloride]	2	31.6
Cc1cnc([C@@H]2CC[C@@]3(CCN(C)C3=O)N2)cc1-c1ccc(C(F)(F)F)cc1 [Example 40, (2S,5S)-7-Methyl-2-[5-methyl-4-[4-(trifluoromethyl)phenyl]-2-pyridyl]-1,7-diazaspiro[4.4]nonan-6-one hydrochloride]	1.58	50.1
COc1ccc(F)cc1-c1ccnc([C@H]2CC[C@@]3(CCN(C)C3=O)N2)c1 [Example 10, (2R,5S)-2-[4-(5-Fluoro-2-methoxy-phenyl)-2-pyridyl]-7-methyl-1,7-diazaspiro[4.4]nonan-6-one hydrochloride]	50.1	3980
CCOc1ccc(F)c(-c2cc([C@H]3CC[C@@]4(CCN(C)C4=O)N3)nc(C)c2C)c1 [Example 144, (2R,5S)-2-[4-(5-Ethoxy-2-fluoro-phenyl)-5,6-dimethyl-2-pyridyl]-7-methyl-1,7-diazaspiro[4.4]nonan-6-one hydrochloride]	3.98	31.6
CCOc1ccc(-c2ccnc([C@H]3CC[C@@]4(CCN(C)C4=O)N3)c2)cc1C [Example 167, (2R,5S)-2-[4-(4-Ethoxy-3-methyl-phenyl)-2-pyridyl]-7-methyl-1,7-diazaspiro[4.4]nonan-6-one hydrochloride]	39.8	39.8
CCOc1ccc(F)c(-c2cc([C@@H]3CC[C@]4(CCN(C)C4=O)N3)ncc2C)c1 [Example 139, (2S,5R)-2-[4-(5-Ethoxy-2-fluoro-phenyl)-5-methyl-2-pyridyl]-7-methyl-1,7-diazaspiro[4.4]nonan-6-one hydrochloride]	39.8	251
O=C1NCCC[C@]12CC[C@@H](c1cc(-c3ccc(F)cc3)ccn1)N2 [Example 113, (2S,5S)-2-[4-(4-Fluoro-phenyl)-pyridin-2-yl]-1,7-diaza-spiro[4.5]decan-6-one hydrochloride]	50.1	200
Cc1cnc([C@@H]2CC[C@]3(CCN(C)C3=O)N2)cc1-c1ccc(C(F)(F)F)cc1 [Example 43, (2S,5R)-7-Methyl-2-[5-methyl-4-[4-(trifluoromethyl)phenyl]-2-pyridyl]-1,7-diazaspiro[4.4]nonan-6-one hydrochloride]	3.16	39.8
CCOc1ccc(F)c(-c2cc([C@@H]3CC[C@]4(CCN(C)C4=O)N3)ncc2CC)c1 [Example 242, (2S,5R)-2-[4-(5-Ethoxy-2-fluoro-phenyl)-5-ethyl-2-pyridyl]-7-methyl-1,7-diazaspiro[4.4]nonan-6-one hydrochloride]	20	100
Cc1cc(-c2cc(C(F)(F)F)ccc2C#N)cc([C@@H]2CC[C@]3(CCN(C)C3=O)N2)n1 [Example 21, 2-[2-Methyl-6-[(2S,5R)-7-methyl-6-oxo-1,7-diazaspiro[4.4]-nonan-2-yl]-4-pyridyl]-4-(trifluoromethyl)-benzonitrile hydrochloride]	31.6	794
CCOc1ccc(F)c(-c2ccnc([C@H]3CC[C@]4(CC(C)(C)NC4=O)N3)c2)c1 [Example 218, (2R,5R)-2-[4-(5-Ethoxy-2-fluoro-phenyl)-2-pyridyl]-8,8-dimethyl-1,7-diazaspiro[4.4]nonan-6-one hydrochloride]	0.501	6.31
CN1CC[C@@]2(CC[C@H](c3cc(-c4cc(N5CCCC5=O)ccc4F)ccn3)N2)C1=O [Example 160, (2R,5S)-2-[4-[2-Fluoro-5-(2-oxopyrrolidin-1-yl)phenyl]-2-pyridyl]-7-methyl-1,7-diazaspiro[4.4]nonan-6-one hydrochloride]	1580	
CCOc1cc(-c2cc(C)nc([C@@H]3CC[C@]4(CCN(C)C4=O)N3)c2)ccc1F [Example 123, (2S,5R)-2-[4-(3-Ethoxy-4-fluoro-phenyl)-6-methyl-2-pyridyl]-7-methyl-1,7-diazaspiro[4.4]nonan-6-one hydrochloride]	39.8	251
CCOc1ccc(F)c(-c2ccnc([C@H]3CC[C@]4(CCCNC4=O)N3)c2)c1 [Example 107, (2R,5S)-2-[4-(5-Ethoxy-2-fluoro-phenyl)-pyridin-2-yl]-1,7-diaza-spiro[4.5]decan-6-one hydrochloride]	0.2	1.58
Cc1cc(-c2ccc(C(F)(F)F)cc2)cc([C@@H]2CC[C@]3(CCNC3=O)N2)n1 [Example 95, (2S,5R)-2-[6-Methyl-4-[4-(trifluoromethyl)phenyl]-2-pyridyl]-1,7-diazaspiro[4.4]nonan-6-one hydrochloride]	12.6	100
COc1cc(C(F)(F)F)ccc1-c1cc(C)nc([C@@H]2CC[C@]3(CCN(C)C3=O)N2)c1 [Example 91, (3S,5R)-3-[4-[2-Methoxy-4-(trifluoromethyl)phenyl]-6-methyl-2-pyridyl]-8-methyl-4,8-diazaspiro[4.4]nonan-9-one hydrochloride]	2	39.8
